According to the NIST ThermoML archive (doi:10.1016/j.jct.2014.02.019):
± gives the expanded uncertainty stated by the source.

What was measured:
[1] = 101 kPa, Liquid; for viscosity: Capillary tube (Ostwald / Ubbelohde) method; for mass density: Vibrating tube method
[2] = wn = mass fraction of the nth substance listed; settings: 101 kPa, Liquid; for viscosity: Capillary tube (Ostwald / Ubbelohde) method; for mass density: Vibrating tube method

CC#N [acetonitrile]
[1]
Settings | mass density [kg/m3] | viscosity [mPa·s]
298.15 K | 776.47 ± 1.6 | 0.342 ± 0.011
303.15 K | 771.56 ± 1.6 | 0.3269 ± 0.01
308.15 K | 765.26 ± 1.6 | 0.3092 ± 0.0097
313.15 K | 759.55 ± 1.5 | 0.2929 ± 0.0092

CC#N [acetonitrile] + CN(C)C=O
[2]
Settings | mass density, 298.15 K [kg/m3] | mass density, 303.15 K [kg/m3] | mass density, 308.15 K [kg/m3] | mass density, 313.15 K [kg/m3] | viscosity, 298.15 K [mPa·s] | viscosity, 303.15 K [mPa·s] | viscosity, 308.15 K [mPa·s] | viscosity, 313.15 K [mPa·s]
w2 = 0 | 776.47 ± 1.6 | 771.56 ± 1.6 | 765.26 ± 1.6 | 759.55 ± 1.5 | 0.342 ± 0.011 | 0.3269 ± 0.01 | 0.3092 ± 0.0097 | 0.2929 ± 0.0092
w2 = 0.25 | 816.75 ± 1.6 | 811.82 ± 1.6 | 806.58 ± 1.6 | 801.83 ± 1.6 | 0.3959 ± 0.012 | 0.3598 ± 0.011 | 0.3417 ± 0.011 | 0.3262 ± 0.01
w2 = 0.5 | 856.92 ± 1.7 | 852.67 ± 1.7 | 847.38 ± 1.7 | 842.57 ± 1.7 | 0.5214 ± 0.016 | 0.46 ± 0.014 | 0.434 ± 0.013 | 0.4038 ± 0.013
w2 = 0.75 | 900.14 ± 1.8 | 895.46 ± 1.8 | 890.88 ± 1.8 | 886.23 ± 1.8 | 0.6465 ± 0.02 | 0.6145 ± 0.019 | 0.5816 ± 0.018 | 0.5524 ± 0.017

CN(C)C=O [dimethylformamide]
[1]
Settings | mass density [kg/m3] | viscosity [mPa·s]
298.15 K | 944.65 ± 1.9 | 0.7986 ± 0.024
303.15 K | 940.05 ± 1.9 | 0.755 ± 0.023
308.15 K | 935.71 ± 1.9 | 0.7069 ± 0.022
313.15 K | 929.91 ± 1.9 | 0.6716 ± 0.021

CN(C)C=O [dimethylformamide] + CC#N
[2], w1 = 1
Settings | mass density [kg/m3] | viscosity [mPa·s]
298.15 K | 944.65 ± 1.9 | 0.7986 ± 0.024
303.15 K | 940.05 ± 1.9 | 0.755 ± 0.023
308.15 K | 935.71 ± 1.9 | 0.7069 ± 0.022
313.15 K | 929.91 ± 1.9 | 0.6716 ± 0.021
